Where two headings read alike, the source gives them in different places.
What was measured:
ABCG2 [1] = target: T1, ABCG2 (Homo sapiens, UniProt Q9UNQ0); experiment: Cellular accumulation of the ABCG2 substrate pheophorbide-a; settings: PhA accumulation assay
T1 sequence (Q9UNQ0 1-655): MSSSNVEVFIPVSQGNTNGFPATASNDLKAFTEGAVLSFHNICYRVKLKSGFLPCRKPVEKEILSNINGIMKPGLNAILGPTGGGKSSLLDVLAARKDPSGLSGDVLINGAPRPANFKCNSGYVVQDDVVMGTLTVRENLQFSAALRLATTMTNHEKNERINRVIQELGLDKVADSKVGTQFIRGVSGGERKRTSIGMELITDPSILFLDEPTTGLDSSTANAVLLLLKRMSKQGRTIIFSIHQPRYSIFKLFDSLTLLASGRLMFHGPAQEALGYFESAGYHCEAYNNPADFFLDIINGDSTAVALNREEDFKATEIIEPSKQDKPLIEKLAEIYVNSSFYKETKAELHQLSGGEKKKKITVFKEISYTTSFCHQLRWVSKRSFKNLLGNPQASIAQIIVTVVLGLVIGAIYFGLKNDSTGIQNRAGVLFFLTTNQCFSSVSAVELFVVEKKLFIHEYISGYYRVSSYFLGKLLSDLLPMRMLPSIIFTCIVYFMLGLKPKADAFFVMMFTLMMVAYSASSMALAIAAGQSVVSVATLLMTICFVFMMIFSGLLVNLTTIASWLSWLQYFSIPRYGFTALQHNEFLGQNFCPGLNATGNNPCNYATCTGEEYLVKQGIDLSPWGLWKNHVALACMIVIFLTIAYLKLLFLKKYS

P-glycoprotein (P-gp) = settings: cited from earlier work
ABCG2 [2] = target: T1, ABCG2

Row | ABCG2 inhibitory activity (in words) (ABCG2 [1]) | Molecule | also measured
1 | observed inhibitory activity | CO/C(=C\c1cc(Br)c(O)c(Br)c1)C(=O)N/C=C/c1ccc(OC(C)=O)cc1 [compound 23] | 
2 |  | CO/C(=C\c1ccc(O)cc1)C(=O)N/C=C/c1cc(Br)c(OC)c(Br)c1 [botryllamide A, reference compound] | Inhibition of export of rhodamine by P-gp (P-glycoprotein (P-gp)): inhibited the export of rhodamine
3 |  | 2-methoxy-p-coumaric acid [compound 8] | ABCG2 inhibitory activity (in words) (ABCG2 [2]): inactive
4 |  | CO/C(=C\c1ccc(O)cc1)C(=O)N/C=C/c1cc(Br)c(O)c(Br)c1 [botryllamide G] | Inhibition of efflux of rhodamine out of P-gp-overexpressing cells (P-glycoprotein (P-gp); at 50 μM): not the efflux of rhodamine
5 | retained inhibitory activity | CO/C(=C\c1ccc(O)c(O)c1)C(=O)N/C=C/c1ccc(O)cc1 [compound 21] | 
6 |  | O=C(/C=C/c1ccc(O)cc1)N/C=C/c1ccc(O)cc1 [compound 18] | ABCG2 inhibitory activity (in words) (ABCG2 [1]; at 100 μM): inactive
7 | observed inhibitory activity | CO/C(=C\c1cc(Br)c(O)c(Br)c1)C(=O)N/C=C/c1ccc(O)cc1 [compound 22] | 
8 | inactive | CO/C(=C\c1ccc(O)cc1)C(=O)NCC(O)c1ccc(O)cc1 (centres unmarked) [compound 9] | 
